Source: the supplement of paper PMC13380429

Key:
Settings in all cases: 72 h
Calu-3 [1] = assay: cell viability relative to DMSO; higher = less toxic
Vero E6 [2] = assay: as above
HepG2 [3] = assay: as above
Caco-2 [4] = assay: as above
U2OS [5] = assay: as above
Calu-3 [6] = assay: drug sensitivity score (DSS) for viability; higher = more toxic; extreme values may be limits of the assay
Vero E6 [7] = assay: as above
HepG2 [8] = assay: as above
Caco-2 [9] = assay: as above
U2OS [10] = assay: as above
Calu-3 [11] = assay: relative viability EC50 (midpoint between 100% and the lowest measured viability); higher = less toxic
Vero E6 [12] = assay: as above
HepG2 [13] = assay: as above
Caco-2 [14] = assay: as above
U2OS [15] = assay: as above

Row | SMILES | cell viability (Calu-3 [1]; 1 nM) | cell viability (Calu-3 [1]; 10 nM) | cell viability (Calu-3 [1]; 100 nM) | cell viability (Calu-3 [1]; 1000 nM) | cell viability (Calu-3 [1]; 10000 nM) | cell viability (Vero E6 [2]; 1 nM) | cell viability (Vero E6 [2]; 10 nM) | cell viability (Vero E6 [2]; 100 nM) | cell viability (Vero E6 [2]; 1000 nM) | cell viability (Vero E6 [2]; 10000 nM) | cell viability (HepG2 [3]; 1 nM) | cell viability (HepG2 [3]; 10 nM) | cell viability (HepG2 [3]; 100 nM) | cell viability (HepG2 [3]; 1000 nM) | cell viability (HepG2 [3]; 10000 nM) | cell viability (Caco-2 [4]; 1 nM) | cell viability (Caco-2 [4]; 10 nM) | cell viability (Caco-2 [4]; 100 nM) | cell viability (Caco-2 [4]; 1000 nM) | cell viability (Caco-2 [4]; 10000 nM) | cell viability (U2OS [5]; 1 nM) | cell viability (U2OS [5]; 10 nM) | cell viability (U2OS [5]; 100 nM) | cell viability (U2OS [5]; 1000 nM) | cell viability (U2OS [5]; 10000 nM) | drug sensitivity score (Calu-3 [6]) | drug sensitivity score (Vero E6 [7]) | drug sensitivity score (HepG2 [8]) | drug sensitivity score (Caco-2 [9]) | drug sensitivity score (U2OS [10]) | relative viability EC50 (Calu-3 [11]) | relative viability EC50 (Vero E6 [12]) | relative viability EC50 (HepG2 [13]) | relative viability EC50 (Caco-2 [14]) | relative viability EC50 (U2OS [15])
1 | CCCCCCCCCCCCCCCC[N+](C)(C)C [cetrimonium] | 97.7% | 97.8% | 109% | 83.6% | 43.1% | 96.5% | 93.5% | 97.7% | 87.5% | 23.8% | 97.9% | 93.2% | 96.5% | 93.6% | 28% | 92.7% | 95.9% | 96.3% | 86.6% | 18.5% | 99% | 95% | 97.5% | 84.6% | 14.3% | 5.5 | 6.3 | 5 | 6.8 | 7.3 | 1.44 µM | 1.91 µM | 2.43 µM | 1.9 µM | 1.83 µM
2 | CCCC[C@@]1(C2CCCC2)Cc2cc(OCCCC(=O)O)c(Cl)c(Cl)c2C1=O [DCPIB] | 87% | 96.4% | 106% | 89.1% | 118% | 109% | 109% | 99.7% | 100% | 101% | 109% | 98.1% | 99.1% | 92.5% | 94.8% | 105% | 108% | 103% | 88.3% | 85.8% | 95.7% | 90.4% | 97.4% | 93.9% | 94.5% | 0 | 0 | 0 | 0.9 | 0 | > 10 µM | > 10 µM | > 10 µM | > 10 µM | > 10 µM
3 | O[C@@H]1CCCC[C@H]1N1CCC(c2ccccc2)CC1 (racemic) [vesamicol] | 101% | 106% | 113% | 105% | 97.2% | 94% | 95.6% | 93.3% | 101% | 102% | 85.7% | 111% | 102% | 97.1% | 98% | 95.3% | 83.6% | 99.5% | 92.9% | 95.2% | 95.2% | 96.5% | 102% | 101% | 101% | 0 | 0 | 0 | 0 | 0 | > 10 µM | > 10 µM | > 10 µM | > 10 µM | > 10 µM
4 | O=C(O)Cn1c2c(c3cc(F)ccc31)CN(C(=O)c1cccc3ccccc13)CC2 [setipiprant] | 91.9% | 115% | 93.1% | 98.7% | 86.5% | 94.2% | 102% | 97.3% | 99.9% | 102% | 98% | 96.3% | 108% | 101% | 102% | 91% | 103% | 103% | 95% | 99.1% | 101% | 105% | 102% | 104% | 98.4% | 0.2 | 0 | 0 | 0 | 0 | > 10 µM | > 10 µM | > 10 µM | > 10 µM | > 10 µM
5 | NS(=O)(=O)c1ccc2c(c1)C1C=CCC1C(c1ccc(Br)cc1)N2 (stereo not given) [4BP-TQS] | 110% | 89.3% | 101% | 96.3% | 105% | 104% | 99.1% | 102% | 104% | 100% | 101% | 105% | 89.5% | 91.5% | 94% | 102% | 97.1% | 99.6% | 98.5% | 97.1% | 97.8% | 98.6% | 103% | 96.6% | 97.5% | 0 | 0 | 0.2 | 0 | 0 | > 10 µM | > 10 µM | > 10 µM | > 10 µM | > 10 µM
6 | O=C(NCCO)c1cc(C(=O)NCCO)cc(C(=O)NCCO)c1 [LM-22A4] | 104% | 105% | 97% | 102% | 91.9% | 105% | 98.3% | 106% | 98.4% | 105% | 104% | 103% | 101% | 97.5% | 102% | 96.8% | 96.1% | 97.3% | 99.2% | 100% | 94.6% | 97.7% | 96.1% | 99.5% | 93.5% | 0 | 0 | 0 | 0 | 0 | > 10 µM | > 10 µM | > 10 µM | > 10 µM | > 10 µM
7 | FC(F)(F)c1ccc(Nc2ncnc3cc(-c4ncccc4C(F)(F)F)ccc23)cc1 [MK-2295] | 112% | 96.9% | 101% | 100% | 81.9% | 99.7% | 98% | 98.3% | 97.8% | 95.2% | 92.7% | 94.9% | 91.5% | 116% | 98.4% | 100% | 95.8% | 91.9% | 83.9% | 90.6% | 100% | 95.5% | 101% | 98% | 97.5% | 0.5 | 0 | 0 | 1.2 | 0 | > 10 µM | > 10 µM | > 10 µM | > 10 µM | > 10 µM
8 | Cc1cc(O)ccc1Cl [chlorocresol] | 99.8% | 92.3% | 96.3% | 105% | 101% | 96.2% | 103% | 100% | 111% | 99.4% | 100% | 100% | 99% | 103% | 102% | 109% | 104% | 100% | 97.4% | 95.1% | 105% | 99.6% | 103% | 97.8% | 100% | 0 | 0 | 0 | 0 | 0 | > 10 µM | > 10 µM | > 10 µM | > 10 µM | > 10 µM
9 | CC(=O)SC[C@@H](Cc1ccccc1)C(=O)NCC(=O)OCc1ccccc1 (racemic) [racecadotril] | 92.8% | 96.7% | 95.5% | 105% | 108% | 105% | 99.3% | 94.1% | 101% | 109% | 105% | 101% | 88.8% | 89.7% | 102% | 94.4% | 95.7% | 99.7% | 92.6% | 122% | 101% | 96.8% | 97.4% | 98.9% | 102% | 0 | 0 | 0.6 | 0 | 0 | > 10 µM | > 10 µM | > 10 µM | > 10 µM | > 10 µM
10 | CO[C@@H](C)Cn1c(=O)n(C)c2cnc3ccc(-c4cncc(C(C)(C)O)c4)cc3c21 | 108% | 89.8% | 68% | 26.9% | 18% | 96.4% | 101% | 87.2% | 54.3% | 28.9% | 94.4% | 99.7% | 95.8% | 56.9% | 14.8% | 97.2% | 93.4% | 82.4% | 35.6% | 25.9% | 108% | 102% | 84% | 25.7% | 8.3% | 17.4 | 10.2 | 9.8 | 14 | 15.7 | 0.144 µM | 0.514 µM | 0.974 µM | 0.238 µM | 0.331 µM
11 | CC(C)(C)C(=O)OCOP(=O)(COCCn1cnc2c(N)ncnc21)OCOC(=O)C(C)(C)C [adefovir-dipivoxil] | 92.9% | 97.6% | 106% | 95.5% | 47.6% | 101% | 106% | 107% | 99.7% | 89.3% | 106% | 93.8% | 101% | 49.1% | 25.2% | 93.7% | 87.6% | 87.5% | 95.4% | 75.6% | 96.2% | 101% | 97.8% | 102% | 75.5% | 3.5 | 0 | 10.1 | 1.9 | 0.8 | 2.46 µM | > 10 µM | 0.741 µM | > 10 µM | > 10 µM
